# According to patent publication US11912668B2, “GCN2 and perk kinase inhibitors and methods of use thereof” (Deciphera Pharmaceuticals, LLC, priority 2020, dated 2024):
# Tests used:
# GCN2 kinase = GCN2 kinase (Homo sapiens (Human), UniProt Q9P2K8); assay: Biochemical assay for GCN2 (TR-FRET kinase activity assay); details: 1 mM ATP, 3-hour incubation
# Procedure, shortened: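 TR-FRET assay with 2 nM GCN2, 130 nM GFP-eIF2α substrate, 0.2 mg/mL E. coli tRNA and 1 mM ATP; compounds (0.5% DMSO) reacted 3 h. Stopped with 20 mM EDTA plus 2 nM Tb-anti-peIF2α (pSer52), 60 min RT; 520/490 ratio converted to % inhibition, IC50 from four-parameter fit.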
# PERK kinase = PERK kinase (Homo sapiens (Human), UniProt Q9NZJ5); assay: Biochemical assay for PERK (coupled pyruvate kinase/lactate dehydrogenase assay); details: 1 mM ATP, rate from 2-3 h time frame
# Procedure, shortened: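 Coupled pyruvate kinase/lactate dehydrogenase readout of ATP hydrolysis via NADH oxidation (A340), 10 nM PERK, 0.25 mg/mL myelin basic protein, 1 mM ATP, pH 7.5 Tris/MgCl2 buffer, 1% DMSO. Absorbance followed 6 h at 30° C; rate from the 2-3 h window, normalised to no-compound and known-inhibitor controls, IC50 fitted.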
# CCRF-CEM leukemia cells = assay: CCRF-CEM ASNase cell proliferation assay, phenotypic assay for cellular inhibition of GCN2; assay type: cell-based; details: Homo sapiens; ASNase treated CCRF-CEM cells, 1 mU/mL ASNase, 72 h
# Method: CCRF-CEM leukemia cells (catalog #CCL-116) were obtained from the American Type Culture Collect (ATTC, Manassas, VA). Cells were grown in RPMI-1640 medium supplemented with 10% heat-inactivated fetal bovine serum (Invitrogen, Carlsbad, CA) and 1% Penicillin/Streptomycin/L-Glutamine at 37° C., 5% CO2, and 95% humidity. Cells were expanded until reaching one million cells per mL at which time they are subcultured or harvested for assay use. Ten thousand cells per well in 200 μL RPMI-1640 supplemented with 10% heat-inactivated fetal bovine serum and 1% Penicillin/Streptomycin were dispensed into a 96-well black clear bottom plate. A serial dilution of test compound and 1 mU/mL ASNase was added in triplicate and plates were incubated for 72 h at 37° C., 5% CO2, and 95% humidity. At the end of the incubation, 40 μL of a […] solution of resazurin (Sigma, St. Louis, MO) in PBS was added to each well of the plate and plates were incubated for an additional 6 h at 37° C., 5% CO2, and 95% humidity. Plates were read on a Synergy2 or equivalent reader (Biotek, Winooski VT) using an excitation of 540 nm and an emission of 600 nm. Data was analyzed using GraphPad Prism software (GraphPad, San Diego, CA) to calculate IC50 values.
# [1] = test system: phospho-GCN2 (Thr899) in HCT116 colorectal cancer cells; assay: HCT116 amino acid starved (-AA) phospho-GCN2 assay (Western blot); assay type: cell-based; details: Homo sapiens, HCT-116, 4 h, read-out: HCT116-AA pGCN2 Western Blot
# Method: (§1) HCT116 colorectal cancer cells (catalog #CCL-247) were obtained from the American Type Culture Collect (ATTC, Manassas, VA). Briefly, cells were grown in RPMI 1640 supplemented with 10% heat inactivated fetal bovine serum (Invitrogen, Carlsbad, CA) and 1% Penicillin/Streptomycin/L-Glutamine at 37° C., 5% CO2, and 95% humidity. Cells were expanded until reaching 70-95% confluency at which point they were subcultured or harvested for assay use. Cells were seeded in 12-well culture plate at five hundred thousand cells per well in 1 mL complete growth medium and incubated overnight at 37° C., 5% CO2, and 95% humidity. The next day each well was replaced with 1 mL Earle's Balanced Salt Solution (EBSS, Invitrogen, Carlsbad, CA) supplemented with 10% Dialyzed Fetal Bovine Serum, 5.5 mM Glucose, 1% Penicillin/Streptomycin and 1% Vitamin solution (thermo #11120052). A serial dilution of test compound was dispensed into well. Plates were incubated for 4 h at 37° C., 5% CO2, and 95% humidity. At the end of the incubation, cells were washed with PBS supplemented with 1× Halt protease inhibitor, 1× Halt phosphatase inhibitor, 1× Sigma phosphatase inhibitor cocktail 2 and 1×EDTA and then lysed with M-PER Mammalian Protein Extraction Reagent supplemented with 3× of the inhibitor mix as described above. Cell lysates were sonicated with water bath sonicator (Qsonica, Newtown, CT) and supernatants were boiled with SDS buffer and reducing agent. Western blot was performed on each lysate to quantify phospho-GCN2 (Thr899), total GCN2, ATF4 and beta-Actin. Membranes were imaged with LI-COR Odyssey CLx Imaging System (LI-COR, Lincoln, NE). Data were analyzed using GraphPad Prism software (GraphPad, San Diego, CA) to calculate IC50 values.
# [2] = test system: ATF4 in HCT116 colorectal cancer cells; assay: HCT116 amino acid starved (-AA) ATF4 assay (Western blot); assay type: cell-based; details: Homo sapiens, HCT-116, 4 h
# Method: as §1
# [3] = test system: ATF4 in CCRF-CEM leukemia cells (PERK); assay: CCRF-CEM TG ATF4 ELISA, phenotypic assay for cellular inhibition of PERK preactivated by thapsigargin; assay type: cell-based; details: Homo sapiens; Thapsigargin (1 μM) stimulated CCRF-CEM cells
# Method: CCRF-CEM leukemia cells (catalog #CCL-116) were obtained from the American Type Culture Collection (ATTC, Manassas, VA). Briefly, cells were grown in RPMI-1640 medium supplemented with 10% heat-inactivated fetal bovine serum (Invitrogen, Carlsbad, CA) and 1% Penicillin/Streptomycin/L-Glutamine at 37° C., 5% CO2, and 95% humidity. Cells were expanded until reaching one million cells per mL at which time they were subcultured or harvested for assay use. One million five hundred thousand cells per well in 1 mL complete growth medium were dispensed into 12-well plates and incubated overnight. A serial dilution of test compound was added and cells were incubated at 37° C., 5% CO2, and 95% for three hours, then 1 μM thapsigargin was added and cells were incubated for an additional hour at 37° C., 5% CO2, and 95%. Cells were lysed then ATF4 levels were measured using an ELISA assay (Proteintech, Rosemont, IL). Absorbance was measured at 450 nm and 544 nM using a Synergy2 or equivalent reader (Biotek, Winooski VT). Data was analyzed using PRISM software (Graphpad, San Diego, CA) to calculate IC50 values.
# Sequence of PERK kinase (Q9NZJ5 other isoform, or with tags, fused parts or gaps): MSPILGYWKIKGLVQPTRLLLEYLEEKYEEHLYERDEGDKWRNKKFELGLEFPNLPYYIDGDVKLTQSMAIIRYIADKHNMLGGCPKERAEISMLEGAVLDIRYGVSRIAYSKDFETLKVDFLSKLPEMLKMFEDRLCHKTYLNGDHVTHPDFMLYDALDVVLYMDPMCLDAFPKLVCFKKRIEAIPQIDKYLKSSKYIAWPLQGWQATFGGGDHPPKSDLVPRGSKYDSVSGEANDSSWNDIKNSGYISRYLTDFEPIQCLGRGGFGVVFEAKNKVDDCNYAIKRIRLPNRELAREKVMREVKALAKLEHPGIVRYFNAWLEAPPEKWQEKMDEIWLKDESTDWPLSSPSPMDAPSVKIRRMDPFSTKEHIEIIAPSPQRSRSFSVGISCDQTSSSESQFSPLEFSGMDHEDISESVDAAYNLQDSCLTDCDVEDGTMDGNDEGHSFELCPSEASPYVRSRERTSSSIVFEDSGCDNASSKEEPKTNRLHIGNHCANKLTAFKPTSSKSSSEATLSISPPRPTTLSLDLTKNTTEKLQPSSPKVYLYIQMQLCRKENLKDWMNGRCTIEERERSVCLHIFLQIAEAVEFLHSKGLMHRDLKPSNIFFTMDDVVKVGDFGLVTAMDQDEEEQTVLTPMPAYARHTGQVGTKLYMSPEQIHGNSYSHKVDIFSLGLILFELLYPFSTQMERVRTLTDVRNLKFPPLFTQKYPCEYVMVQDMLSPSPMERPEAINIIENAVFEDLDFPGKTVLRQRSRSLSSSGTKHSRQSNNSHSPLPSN
# Sequence of GCN2 kinase (Q9P2K8 whole entry): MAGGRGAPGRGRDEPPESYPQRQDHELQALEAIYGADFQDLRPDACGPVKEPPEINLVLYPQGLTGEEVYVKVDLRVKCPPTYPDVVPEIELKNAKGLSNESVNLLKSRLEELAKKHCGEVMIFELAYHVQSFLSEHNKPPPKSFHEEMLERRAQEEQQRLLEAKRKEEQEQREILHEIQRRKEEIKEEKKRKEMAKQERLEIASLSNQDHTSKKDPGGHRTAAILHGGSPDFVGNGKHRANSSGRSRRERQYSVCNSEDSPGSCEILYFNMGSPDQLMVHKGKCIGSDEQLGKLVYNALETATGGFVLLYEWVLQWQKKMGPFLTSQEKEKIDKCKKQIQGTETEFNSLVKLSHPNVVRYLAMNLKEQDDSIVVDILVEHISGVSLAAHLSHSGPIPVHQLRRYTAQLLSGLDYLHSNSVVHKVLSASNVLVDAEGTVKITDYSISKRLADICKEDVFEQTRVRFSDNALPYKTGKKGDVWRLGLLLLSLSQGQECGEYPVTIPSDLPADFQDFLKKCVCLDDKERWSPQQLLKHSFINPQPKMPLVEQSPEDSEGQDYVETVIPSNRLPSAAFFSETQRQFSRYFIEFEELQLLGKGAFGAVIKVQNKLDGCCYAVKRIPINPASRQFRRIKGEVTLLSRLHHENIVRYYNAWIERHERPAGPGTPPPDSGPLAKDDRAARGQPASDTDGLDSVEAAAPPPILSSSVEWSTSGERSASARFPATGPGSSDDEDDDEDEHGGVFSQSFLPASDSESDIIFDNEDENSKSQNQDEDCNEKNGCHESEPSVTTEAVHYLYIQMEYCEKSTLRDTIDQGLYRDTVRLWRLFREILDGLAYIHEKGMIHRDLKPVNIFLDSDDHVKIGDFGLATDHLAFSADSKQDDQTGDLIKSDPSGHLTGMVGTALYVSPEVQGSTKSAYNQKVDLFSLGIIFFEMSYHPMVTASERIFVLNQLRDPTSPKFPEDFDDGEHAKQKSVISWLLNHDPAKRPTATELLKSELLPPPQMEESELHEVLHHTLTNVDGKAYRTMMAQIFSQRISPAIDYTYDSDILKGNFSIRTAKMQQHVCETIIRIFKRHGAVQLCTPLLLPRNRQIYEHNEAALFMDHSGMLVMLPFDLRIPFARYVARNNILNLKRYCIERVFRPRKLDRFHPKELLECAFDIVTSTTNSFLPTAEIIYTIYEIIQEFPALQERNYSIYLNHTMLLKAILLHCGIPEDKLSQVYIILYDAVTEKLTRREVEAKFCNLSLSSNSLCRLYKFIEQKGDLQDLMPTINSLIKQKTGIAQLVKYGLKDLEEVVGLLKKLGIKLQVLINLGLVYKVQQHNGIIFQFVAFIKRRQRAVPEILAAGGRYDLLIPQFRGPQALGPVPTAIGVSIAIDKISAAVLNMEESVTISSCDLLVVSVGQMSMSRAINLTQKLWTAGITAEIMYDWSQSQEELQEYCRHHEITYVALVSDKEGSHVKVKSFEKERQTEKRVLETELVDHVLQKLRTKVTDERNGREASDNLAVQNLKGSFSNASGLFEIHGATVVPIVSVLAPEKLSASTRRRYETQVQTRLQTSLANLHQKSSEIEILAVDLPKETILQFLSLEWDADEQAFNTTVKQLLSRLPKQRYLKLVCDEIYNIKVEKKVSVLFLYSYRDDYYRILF
Structure (SMILES),IC50 (GCN2 kinase),IC50 (PERK kinase),IC50 (CCRF-CEM leukemia cells),IC50 [1],IC50 [2],IC50 [3]
CNc1cc2nc(C)c(-c3cccc(NS(=O)(=O)c4cc(Cl)cc(CO)c4Cl)c3F)cc2cn1 [Example 45],≤ 100 nM,≤ 100 nM,≤ 100 nM,≤ 100 nM,≤ 100 nM,100 to 500 nM
CNc1ncc2cc(-c3cc(NS(=O)(=O)c4cc(Cl)cnc4OC)cc(F)c3F)c(C)nc2n1 [Example 48],≤ 100 nM,100 to 500 nM,100 to 500 nM,≤ 100 nM,≤ 100 nM,1000 to 10000 nM
CNc1ncc2cc(-c3cccc(NS(=O)(=O)c4cc(Cl)cnc4NC)c3F)ccc2n1 [Example 50],≤ 100 nM,≤ 100 nM,≤ 100 nM,≤ 100 nM,≤ 100 nM,1000 to 10000 nM
CNc1ncc2cc(-c3cccc(NS(=O)(=O)c4cc(Cl)cnc4OC)c3C)c(C)nc2n1 [Example 51],≤ 100 nM,100 to 500 nM,≤ 100 nM,≤ 100 nM,≤ 100 nM,1000 to 10000 nM
CNc1ncc2cc(-c3cc(NS(=O)(=O)c4cc(Cl)cnc4OC)ccc3C)c(C)nc2n1 [Example 53],≤ 100 nM,100 to 500 nM,≤ 100 nM,≤ 100 nM,≤ 100 nM,1000 to 10000 nM
CNc1cc2ncc(-c3cccc(NS(=O)(=O)c4cc(Cl)cnc4OC)c3F)cc2cn1 [Example 56],100 to 500 nM,≤ 100 nM,≤ 100 nM,≤ 100 nM,≤ 100 nM,500 to 1000 nM
CNc1ncc2cc(-c3cc(F)cc(NS(=O)(=O)c4cc(Cl)cc(CO)c4Cl)c3)c(NC)nc2n1 [Example 57],≤ 100 nM,≤ 100 nM,≤ 100 nM,≤ 100 nM,≤ 100 nM,1000 to 10000 nM
COc1ncc(Cl)cc1S(=O)(=O)Nc1cccc(-c2cnc3nc(Nc4cnn(C)c4)ncc3c2)c1 [Example 59],≤ 100 nM,100 to 500 nM,≤ 100 nM,≤ 100 nM,≤ 100 nM,1000 to 10000 nM
CNc1ncc2cc(-c3cccc(NS(=O)(=O)c4cc(Cl)cnc4OC)c3F)c(N)nc2n1 [Example 61],≤ 100 nM,≤ 100 nM,≤ 100 nM,≤ 100 nM,≤ 100 nM,100 to 500 nM
CNc1ncc2cc(-c3cccc(NS(=O)(=O)c4cc(Cl)cnc4OC)c3Cl)ccc2n1 [Example 62],≤ 100 nM,≤ 100 nM,≤ 100 nM,≤ 100 nM,100 to 500 nM,1000 to 10000 nM
CNc1ncc2cc(-c3cc(F)cc(NS(=O)(=O)c4cc(Cl)cnc4OC)c3)c(N)nc2n1 [Example 63],≤ 100 nM,≤ 100 nM,≤ 100 nM,≤ 100 nM,≤ 100 nM,1000 to 10000 nM
CNc1ncc2cc(-c3cccc(NS(=O)(=O)c4cc(Cl)cnc4OC)c3)c(N)nc2n1 [Example 64],≤ 100 nM,100 to 500 nM,≤ 100 nM,≤ 100 nM,≤ 100 nM,1000 to 10000 nM
CNc1ncc2cc(-c3cccc(NS(=O)(=O)c4cc(Cl)cnc4OC)c3F)c(OC)nc2n1 [Example 66],≤ 100 nM,≤ 100 nM,≤ 100 nM,≤ 100 nM,≤ 100 nM,1000 to 10000 nM
CNc1ncc2cc(-c3cccc(NS(=O)(=O)c4cc(Cl)cnc4OC)c3Cl)c(C)nc2n1 [Example 67],≤ 100 nM,≤ 100 nM,≤ 100 nM,≤ 100 nM,≤ 100 nM,1000 to 10000 nM
CNc1ncc2cc(-c3cc(NS(=O)(=O)c4cc(Cl)cnc4OC)ccc3Cl)c(C)nc2n1 [Example 68],≤ 100 nM,≤ 100 nM,≤ 100 nM,≤ 100 nM,≤ 100 nM,1000 to 10000 nM
CNc1ncc2cc(-c3cccc(NS(=O)(=O)c4cc(Cl)cc(C(C)(C)O)c4Cl)c3F)c(NC)nc2n1 [Example 74],100 to 500 nM,100 to 500 nM,≤ 100 nM,≤ 100 nM,≤ 100 nM,1000 to 10000 nM
COc1ncc(Cl)cc1S(=O)(=O)Nc1cccc(-c2cc3cnc(N)cc3nc2C)c1F [Example 77],≤ 100 nM,≤ 100 nM,≤ 100 nM,≤ 100 nM,≤ 100 nM,100 to 500 nM
CNc1cc2nc(C)c(-c3cccc(NS(=O)(=O)c4cc(Cl)cnc4NC)c3F)cc2cn1 [Example 78],≤ 100 nM,≤ 100 nM,≤ 100 nM,≤ 100 nM,≤ 100 nM,500 to 1000 nM
COc1ncc(Cl)cc1S(=O)(=O)Nc1cccc(-c2cc3cnc(NC(C)=O)cc3nc2C)c1F [Example 84],≤ 100 nM,≤ 100 nM,≤ 100 nM,≤ 100 nM,≤ 100 nM,100 to 500 nM
COc1ncc(Cl)cc1S(=O)(=O)Nc1cccc(-c2cnc3cc(N)ncc3c2)c1F [Example 85],≤ 100 nM,≤ 100 nM,≤ 100 nM,≤ 100 nM,≤ 100 nM,1000 to 10000 nM
COc1ncc(Cl)cc1S(=O)(=O)Nc1cc(F)cc(-c2cc3cnc(Nc4cnn(C)c4)nc3nc2C)c1 [Example 87],≤ 100 nM,≤ 100 nM,≤ 100 nM,≤ 100 nM,≤ 100 nM,1000 to 10000 nM
COc1ncc(Cl)cc1S(=O)(=O)Nc1cccc(-c2cc3cnc(Nc4cnn(C)c4)nc3nc2C)c1F [Example 88],≤ 100 nM,≤ 100 nM,≤ 100 nM,≤ 100 nM,≤ 100 nM,100 to 500 nM
CNc1ncc2cc(-c3cccc(NS(=O)(=O)c4cc(Cl)cnc4OC)c3OC)c(C)nc2n1 [Example 89],100 to 500 nM,≤ 100 nM,100 to 500 nM,≤ 100 nM,100 to 500 nM,1000 to 10000 nM
CNc1ncc2cc(-c3cccc(NS(=O)(=O)c4cc(Cl)cnc4NC)c3F)c(C)nc2n1 [Example 90],≤ 100 nM,≤ 100 nM,≤ 100 nM,≤ 100 nM,≤ 100 nM,1000 to 10000 nM
